From patent publication US20140050778A1, “NUCLEIC ACID BINDING COMPOUNDS, METHODS OF MAKING, AND USE THEREOF” (UNIVERSITY OF ROCHESTER, priority 2010, published 2014) come the findings set out here.

Data set [1] concerns HSA^LR transgenic mice. Nature of the data set: Acute toxicity observed in treated mice. The data set is classed as in vivo, mouse. To be noted: 40 mg/kg intraperitoneally once per day for 5 days. The method, then: Mouse handling and experimental procedures were conducted in accordance with the Association for Assessment and Accreditation of Laboratory Animal Care. HSA^LR transgenic mice in line 20b expressing human skeletal actin RNA with 250 CUG repeats in the 3′ UTR were previously described (Mankodi, “Myotonic Dystrophy in Transgenic Mice Expressing an Expanded CUG Repeat,” Science 289:1769-1772 (2000), which is hereby incorporated by reference in its entirety). Age- and gender-matched HSA^LR mice (12-16 weeks old) were injected intraperitoneally with 40 mg/kg of compounds or saline alone once per day for 5 days. Mice were sacrificed one day after the last injection, and vastus muscle was obtained for splicing analysis. RNA extraction, cDNA preparation, and RT-PCR were performed as described previously. The PCR products were electrophoresed on agarose gels for separation, and scanned with a laser fluorimager (Typhoon, GE Healthcare). Quantitative analysis of amplified products was performed by ImageQuant software (Molecular Dynamics). Differences between two groups were evaluated by unpaired Student's t-test.

Data set [2] has as its system C1-S cells. Nature of the data set: WST-1 viability. The data set is classed as cell-based, mouse. Conditions: C1-S cells at the assay concentrations. How it is done: The ability of selected compounds to inhibit the formation of CUG^exp RNA-MBNL1 complexes in mouse myoblasts was then evaluated. For this study, C2C12 mouse myoblasts engineered to stably express a firefly luciferase transcript with or without ˜800 uninterrupted CUG repeats in an hDMPK 3′UTR (clones C5-14 and C1-S, respectively) were used. Cells were grown in 100 μl growth media in 96-well plates to ˜10% confluency. Compound was added at various concentrations in triplicate to both C1-S and C5-14 cultures, and incubated for 3 days. Culture media was replaced with fresh media containing 1% WST-1 reagent (Roche). After ˜15-20 minutes of incubation, the WST-1 containing media was transferred to a clear 96-well plate, and the absorbances at 450 nm and 690 nm measured with a PerkinElmer EnVision Plate Reader. Cells were gently rinsed (1×PBS) before incubation at −20° C. in 100 μl 1X Passive Lysis Buffer (Promega) for 10 minutes. Immediately before luminescence detection, 20 μl of each lysate was mixed with 50 μl of Luciferase Assay Reagent (Promega) in a fresh opaque-white 96-well plate. Luminescence values were normalized for well-to-well variations in viable cell numbers by dividing by the corresponding (A450 nm-A690 nm) values of the WST-1 containing media.

For data set [3], the system named is (CUG)10 RNA (SEQ ID NO: 3). Nature of the data set: SPR binding to immobilized biotinylated RNA. Conditions: (CUG)10; for improvement in affinity relative to compound 1: SPR KD versus filter-binding KD of compound 1. (In general: SPR reads the build-up and loss of mass on a sensor chip optically.)

Read-outs that look alike come from different tables or passages of the source.

In the case of `CCc1nc2cc3ccccc3cc2cc1C(=O)N1CCC[C@H]1C(=O)N[C@@H](C/C=C\C[C@H](NC(=O)[C@@H]1CCCN1C(=O)c1cc2cc3ccccc3cc2nc1CC)C(=O)N[C@@H](CCCCN)C(=O)NCCCN)C(=O)N[C@@H](CCCCN)C(=O)NCCCN` [Compound 4], the “acute toxicity effects in mice” value in data set [1] is on record as “significant acute toxicity effects”. In addition, the WST-1 viability entry in data set [2] was “no observable toxicity”. Moreover, in data set [3], the “Residence time (t1/2) for compound binding to RNA” value amounted to 9.7882 min and the “improvement in affinity relative to compound 1” value is given as “roughly 50 fold”. Also, in data set [3] (SPR), the “Off-rates (koff)” value amounted to 0.00118 s⁻¹ and the “On-rates (kon)” value was found to be 27800 M⁻¹ s⁻¹. The Kd in data set [3] (SPR, read-out: apparent KD) was 45 ± 3.3 nM. Further, in data set [3] (Table 7, SPR), the ka entry is “ka = 2.78E+4/M * s” and the kd entry was “kd = 1.18E−3/s”. In addition, the Kd in data set [3] (Table 7, SPR, read-out: KD) was found to be 45 nM.

Regarding `CCc1nc2cc3ccccc3cc2cc1C(=O)N1CCC[C@H]1C(=O)N[C@@H](C/C=C/C[C@H](NC(=O)[C@@H]1CCCN1C(=O)c1cc2cc3ccccc3cc2nc1CC)C(=O)N[C@@H](CCCCN)C(=O)NCCCN)C(=O)N[C@@H](CCCCN)C(=O)NCCCN` [Compound 5], in data set [3], the “Residence time (t1/2) for compound binding to RNA” value stood at 4.6762 min and the “improvement in affinity relative to compound 1” value is listed as “roughly 50 fold”. In data set [3] (SPR), the “Off-rates (koff)” value is 0.00247 s⁻¹ and the “On-rates (kon)” value is 28400 M⁻¹ s⁻¹. For the same compound, the Kd in data set [3] (SPR, read-out: apparent KD) is 88.2 ± 0.28 nM. Further, in data set [3] (Table 7, SPR), the ka result is recorded as “ka = 2.84E+4/M * s” and the kd entry is “kd = 2.47E−3/s”. The Kd in data set [3] (Table 7, SPR, read-out: KD) amounted to 88 nM.
